Assay results reported in patent US12098193B2, “Netrin G1 as a biomarker for enhancing tumor treatment efficacy” (Institute For Cancer Research, priority 2017, dated 2024).
Peptide text beside a SMILES is read from it. * marks the point of attachment. Cbz = O=C(OCc1ccccc1)*; CH2F = FC*

Columns and labels:
Type in all cases: cell-based
PDAC cells [1] = assay: NK cell killing assay in 3D (CAF ECM); conditions: added to NetG1 knockout CAFs; FIG. 11 panel D
Procedure: Knockout of NetG1 in CAFs reduced immunosuppressive cytokine secretion, and CAFs protected PDAC from NK cell induced death in a NetG1/NGL1-dependent manner. Referring to FIG. 11 (panel A), a panel of immunosuppressive and pro-tumor cytokines (GM-CSF, IL-1Beta, CCL20, IL-6, IL-8, TGF-beta) and NK stimulating cytokine (IL-15) was performed. Knockout of NetG1 in CAFs produced less of all cytokines tested, but still produced significant levels of the anti-tumor NK cell cytokine IL-15. Referring to FIG. 11 (panel B), an assay was performed with Granzyme B and IFN-g production in NK cells stimulated with IL-2+IFN-γ (positive controls) or in co-culture conditions with conditioned media or direct contact with CAFs (CON vs knockout of NetG1). Knockout of NetG1 in CAF media or direct contact partially activated NK cells. Referring to FIG. 11 (panel C), an NK cell killing assay in 3D (CAF ECM) was carried out. Knockout of NetG1 in CAFs allowed NK cells to kill PDAC, while CON CAFs protected PDAC.

PDAC cells [2] = assay: PDAC survival in stressful culture conditions (serum free, glutamine free) with CAFs; conditions: FIG. 7
Excerpt: Referring to FIG. 7 (panel B), extracellular matrix produced by NetG1 knockout CAFs is less supportive to PDAC survival. Referring to FIG. 7 (panel C), knockout of NetG1 in CAFs produced less glutamate and glutamine. Referring to FIG. 7 (panel D), knockout of NetG1 in CAFs and knockout of NGL1 in PDAC expressed less glutamine/glutamate related proteins.

PDAC cells [3] = assay: cell death quantification of PDAC (CON or NGL1 knockout) cultured alone or co-cultured with CAFs in 3D under stressful conditions; conditions: stressful 3D culture (FIG. 9)
Procedure: NGL1 expression in PDAC determined the mode of cell death under stressful co-culture conditions with CAFs. Referring to FIG. 9 (panel A), cell death quantification of PDAC (CON or knockout) cultured alone in 3D was carried out. Referring to FIG. 9 (panel B), cell death quantification of PDAC (CON or knockout) co-cultured with CAFs (CON or knockout) in 3D was also carried out. […] Also, knockout of NetG1 I CAFs drove PDAC to higher amounts of death across all conditions.

| Structure (SMILES) | protection of PDAC from NK cell-induced death (PDAC cells [1]) | PDAC survival after adding back to the stressful culture conditions (PDAC cells [2]) | mode of cell death of NGL1+ PDAC under caspase inhibition (PDAC cells [3]; NGL1+ PDAC) | cell death of NGL- PDAC under caspase inhibition (PDAC cells [3]; NGL1 knockout PDAC) |
| --- | --- | --- | --- | --- |
| N[C@@H](CCC(=O)O)C(=O)O [glutamate] | partially restored protection | partially rescued PDAC survival | – | – |
| NC(=O)CC[C@H](N)C(=O)O [glutamine] | – | partially rescued PDAC survival | – | – |
| CC(NC(=O)C(NC(=O)OCc1ccccc1)C(C)C)C(=O)NC(CC(=O)O)C(=O)CF (stereo not drawn) [zvad] (Cbz-Val-Ala-Asp-CH2F; configuration not given here) | – | – | driven to necroptotic death | protected from death |
